Here are results for four compounds from patent US20230085307A1, “PYRIDAZINONE COMPOUND AND HERBICIDE” (NISSAN CHEMICAL CORPORATION, priority 2019, published 2023).

The test system of test [1] is southern crabgrass. Description: Test Example 4: herbicidal effect by soil treatment (Table 19, symbol F). The class given is in vivo, southern crabgrass (Digitaria ciliaris). The following applies: amount of applied herbicide 320 g/ha. The essentials:
(§1)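 Three weeks of greenhouse growth at 25° C. to 30° C. followed a uniform surface spray of water-diluted emulsion at a predetermined herbicide amount. Seeds had been sown beforehand under about 1.5 cm of sterilized diluvial soil. Grading followed criteria set out in an earlier test.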

Test [2] relates to blackgrass. Description: Test Example 5: herbicidal effect by foliage application, plastic box (Table 20, symbol J). The following applies: 320 g/ha; for herbicidal effect on J: blackgrass (evaluation grade 0-5): foliage application after 14-day growth, evaluated three weeks after application. The class given is in vivo, blackgrass (Alopecurus myosuroides). The essentials:
(§2)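 Plants sown in sterilized diluvial soil and grown 14 days in a greenhouse at 25° C to 30° C, then sprayed on the foliage with the compound's emulsion diluted in water to a predetermined herbicide amount. Injury to weeds and crops scored three weeks after application on a visual rating scale.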

Test [3] concerns persian speedwell. As to the kind of experiment: Test Example 5: herbicidal effect by foliage application, plastic box (Table 20, symbol R). Particulars: 320 g/ha; for herbicidal effect on R: persian speedwell (evaluation grade 0-5): foliage application after 14-day growth, evaluated three weeks after application. It counts as in vivo, Persian speedwell (Veronica persica). The essentials:
as §2

Test [4] relates to lambsquarters. As to the kind of experiment: Test Example 5: herbicidal effect by foliage application, plastic box (Table 20, symbol O). It counts as in vivo, lambsquarters (Chenopodium album). The following applies: 320 g/ha; for herbicidal effect on O: lambsquarters (evaluation grade 0-5): foliage application after 14-day growth, evaluated three weeks after application. The essentials:
as §2

Test [5] has as its system barnyard grass. As to the kind of experiment: Test Example 3: herbicidal effect by foliage application, Wagner pot (Table 18, symbol H). The following applies: for herbicidal effect on barnyard grass (H): 320 g/ha. It counts as in vivo, barnyard grass (Echinochloa crus-galli). Put shortly: (§3)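 Plants were sown in alluvial soil held under 0.1–0.5 cm standing water and grown 14 days in a greenhouse at 25–30 °C. An emulsifiable formulation, water-diluted to the set dose, was then sprayed onto the foliage, and effects were scored three weeks later using previously defined criteria.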

Test [6] relates to windgrass. As to the kind of experiment: Test Example 5: herbicidal effect by foliage application, plastic box (Table 20, symbol L). It counts as in vivo, windgrass (Apera spica-venti). The following applies: foliage application, 320 g/ha, three weeks after application. The essentials:
as §2

For test [7], the system named is Chinese sprangletop. As to the kind of experiment: Test Example 3: herbicidal effect by foliage application, Wagner pot (Table 18, symbol D). The class given is in vivo, chinese sprangletop (Leptochloa chinensis). The following applies: for herbicidal effect on Chinese sprangletop (D): 320 g/ha. Put shortly:
as §3

The subject of test [8] is barnyard grass. As to the kind of experiment: Test Example 5: herbicidal effect by foliage application, plastic box (Table 20, symbol H). The class given is in vivo, barnyard grass (Echinochloa crus-galli). The following applies: 320 g/ha; for herbicidal effect on H: barnyard grass (evaluation grade 0-5): foliage application after 14-day growth, evaluated three weeks after application. The essentials: as §2

In test [9] the test system is redroot pigweed. Description: Test Example 4: herbicidal effect by soil treatment (Table 19, symbol N). The following applies: amount of applied herbicide 320 g/ha. It counts as in vivo, redroot pigweed (Amaranthus retroflexus). Put shortly:
as §1

The test system of test [10] is Japanese bulrush. As to the kind of experiment: Test Example 1: herbicidal activity, application before weed generation under submerged conditions (Table 16, symbol B). It counts as in vivo, Japanese bulrush (Schoenoplectus juncoides). The following applies: amount of applied herbicide 320 g/ha. The essentials: (§4)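 Emulsion formulation, water-diluted to set dose, was put onto the flooded surface (4 cm depth, alluvial soil) the same day weeds were sown and 2.5-leaf rice transplanted. After 3 weeks at 25-30 °C under glass, each species was rated 0 (≤5% kill) to 5 (≥90% kill).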

The test system of test [11] is Italian ryegrass. Description: Test Example 4: herbicidal effect by soil treatment (Table 19, symbol K). It counts as in vivo, Italian ryegrass (Lolium multiflorum). Particulars: amount of applied herbicide 320 g/ha. Put shortly: as §1
Test [12] has as its system wild oat. As to the kind of experiment: Test Example 5: herbicidal effect by foliage application, plastic box (Table 20, symbol I). The class given is in vivo, wild oat (Avena fatua). The following applies: 320 g/ha; for herbicidal effect on I: wild oat (evaluation grade 0-5): foliage application after 14-day growth, evaluated three weeks after application. Put shortly: as §2

For test [13], the system named is wild oat. Description: Test Example 4: herbicidal effect by soil treatment (Table 19, symbol I). The class given is in vivo, wild oat (Avena fatua). The following applies: amount of applied herbicide 320 g/ha. The essentials: as §1
Test [14] concerns southern crabgrass. Description: Test Example 5: herbicidal effect by foliage application, plastic box (Table 20, symbol F). The class given is in vivo, southern crabgrass (Digitaria ciliaris). The following applies: 320 g/ha; for herbicidal effect on F: southern crabgrass (evaluation grade 0-5): foliage application after 14-day growth, evaluated three weeks after application. The essentials:
as §2

Test [15] concerns oval-leafed pondweed. As to the kind of experiment: Test Example 1: herbicidal activity, application before weed generation under submerged conditions (Table 16, symbol C). It counts as in vivo, oval-leafed pondweed (Monochoria vaginalis). Particulars: amount of applied herbicide 320 g/ha. The essentials:
as §4

Test [16] relates to blackgrass. Description: Test Example 4: herbicidal effect by soil treatment (Table 19, symbol J). The class given is in vivo, blackgrass (Alopecurus myosuroides). Particulars: amount of applied herbicide 320 g/ha. The essentials:
as §1

Where [17] appears, read: foliage application, three weeks after application.
Setting [18] is: amount of applied herbicide 320 g/ha.

With `C=CCOc1ccc2c(-c3c(O)c(C)nn(C)c3=O)c(-c3ccccc3OC)sc2c1` [3-111], the “F: southern crabgrass, herbicidal effect grade” value in [1] and in test [14] (setting [17]) was 5 (Herbicidal rate of 90% or more (almost completely withered)) in each case. In addition, in test [2] (setting [17]), the “J: blackgrass, herbicidal effect grade” value is given as 5 (Herbicidal rate of 90% or more (almost completely withered)). The “R: persian speedwell, herbicidal effect grade” value in test [3] (setting [17]) is 5 (Herbicidal rate of 90% or more (almost completely withered)). The “O: lambsquarters, herbicidal effect grade” value in [4] (setting [17]) was 5 (Herbicidal rate of 90% or more (almost completely withered)). Moreover, the “herbicidal effect on barnyard grass (H)” value in [5] is 5 (Herbicidal rate of 90% or more (almost completely withered)). For the same compound, in test [6], the “L: windgrass, herbicidal effect grade” value is 5 (Herbicidal rate of 90% or more (almost completely withered)). In addition, the “herbicidal effect on Chinese sprangletop (D)” value (“herbicidal effect … (D)” below) in test [7] was 3 (Herbicidal rate of 40% or more and less than 70%). In addition, the “H: barnyard grass, herbicidal effect grade” value in [8] (setting [17]) is 5 (Herbicidal rate of 90% or more (almost completely withered)). Moreover, the “N: redroot pigweed, herbicidal effect grade” value in test [9] is listed as 5 (Herbicidal rate of 90% or more (almost completely withered)). Also, the “Herbicidal effect, B: Japanese bulrush” value in test [10] was 5 (Herbicidal rate of 90% or more (almost completely withered)). The “K: Italian ryegrass, herbicidal effect grade” value in test [11] was 5 (Herbicidal rate of 90% or more (almost completely withered)). For the same compound, the “I: wild oat, herbicidal effect grade” value in test [12] (setting [17]) was 4 (Herbicidal rate of 70% or more and less than 90%); in [13], 3 (Herbicidal rate of 40% or more and less than 70%). Moreover, the “Herbicidal effect, C: oval-leafed pondweed” value (“Herbicidal effect, C” for short) in [15] is listed as 5 (Herbicidal rate of 90% or more (almost completely withered)).
`C=C(C)C(=O)Oc1c(C)nn(C)c(=O)c1-c1c(-c2ccccc2OC)sc2cc(OC)ccc12` [3-155]: in test [1], the “Herbicidal effect by soil treatment, F: southern crabgrass” value is listed as 0 (Herbicidal rate of 5% or less (almost no effect)). Moreover, the “herbicidal effect on J: blackgrass (evaluation grade 0-5)” value in [2] is reported as 5 (Herbicidal rate of 90% or more (almost completely withered)). Further, the “herbicidal effect on R: persian speedwell (evaluation grade 0-5)” value in test [3] is given as 5 (Herbicidal rate of 90% or more (almost completely withered)). In addition, in test [4], the “herbicidal effect on O: lambsquarters (evaluation grade 0-5)” value was 4 (Herbicidal rate of 70% or more and less than 90%). Further, the “herbicidal effect on barnyard grass (H)” value in test [5] is given as 5 (Herbicidal rate of 90% or more (almost completely withered)). Further, the “Herbicidal effect by soil treatment, J: blackgrass” value in test [16] was 4 (Herbicidal rate of 70% or more and less than 90%). Besides, in test [7], the “herbicidal effect … (D)” value was 4 (Herbicidal rate of 70% or more and less than 90%). Also, in test [8], the “herbicidal effect on H: barnyard grass (evaluation grade 0-5)” value is listed as 5 (Herbicidal rate of 90% or more (almost completely withered)). Also, in test [9], the “Herbicidal effect by soil treatment, N: redroot pigweed” value was 4 (Herbicidal rate of 70% or more and less than 90%). For the same compound, the “Herbicidal effect, B: Japanese bulrush” value in test [10] is 5 (Herbicidal rate of 90% or more (almost completely withered)). In test [11], the “Herbicidal effect by soil treatment, K: Italian ryegrass” value is 3 (Herbicidal rate of 40% or more and less than 70%). The “herbicidal effect on I: wild oat (evaluation grade 0-5)” value in [12] was 3 (Herbicidal rate of 40% or more and less than 70%). For the same compound, in test [13], the “Herbicidal effect by soil treatment, I: wild oat” value was 0 (Herbicidal rate of 5% or less (almost no effect)). The “herbicidal effect on F: southern crabgrass (evaluation grade 0-5)” value in test [14] is reported as 5 (Herbicidal rate of 90% or more (almost completely withered)). The “Herbicidal effect, C” value in test [15] was 5 (Herbicidal rate of 90% or more (almost completely withered)).
Take `CCCC(=O)Oc1c(C)nn(C)c(=O)c1-c1c(-c2ccc(OC)cc2)sc2c(F)cccc12` [4-006]: in test [1], the “Herbicidal effect by soil treatment, F: southern crabgrass” value is reported as 0 (Herbicidal rate of 5% or less (almost no effect)). Besides, the “herbicidal effect on J: blackgrass (evaluation grade 0-5)” value in test [2] was 1 (Herbicidal rate of 5% or more and less than 20%). In test [3], the “herbicidal effect on R: persian speedwell (evaluation grade 0-5)” value is 3 (Herbicidal rate of 40% or more and less than 70%). The “herbicidal effect on O: lambsquarters (evaluation grade 0-5)” value in test [4] was 3 (Herbicidal rate of 40% or more and less than 70%). Further, in test [5], the “herbicidal effect on barnyard grass (H)” value is recorded as 5 (Herbicidal rate of 90% or more (almost completely withered)). Also, the “Herbicidal effect by soil treatment, J: blackgrass” value in test [16] was 0 (Herbicidal rate of 5% or less (almost no effect)). Also, the “herbicidal effect … (D)” value in [7] is listed as 5 (Herbicidal rate of 90% or more (almost completely withered)). Besides, in test [8], the “herbicidal effect on H: barnyard grass (evaluation grade 0-5)” value is 4 (Herbicidal rate of 70% or more and less than 90%). Further, the “Herbicidal effect by soil treatment, N: redroot pigweed” value in test [9] is 4 (Herbicidal rate of 70% or more and less than 90%). In addition, the “Herbicidal effect, B: Japanese bulrush” value in [10] is 3 (Herbicidal rate of 40% or more and less than 70%). For the same compound, in test [11], the “Herbicidal effect by soil treatment, K: Italian ryegrass” value is recorded as 0 (Herbicidal rate of 5% or less (almost no effect)). The “herbicidal effect on I: wild oat (evaluation grade 0-5)” value in [12] is 0 (Herbicidal rate of 5% or less (almost no effect)). The “Herbicidal effect by soil treatment, I: wild oat” value in test [13] was 0 (Herbicidal rate of 5% or less (almost no effect)). The “herbicidal effect on F: southern crabgrass (evaluation grade 0-5)” value in [14] was 1 (Herbicidal rate of 5% or more and less than 20%). Further, in test [15], the “Herbicidal effect, C” value is on record as 0 (Herbicidal rate of 5% or less (almost no effect)).
With `COc1ccccc1-c1sc2c(Cl)c(OC)ccc2c1-c1c(O)c(C)nn(C)c1=O` [Compound No. 7-001, 4-(7-chloro-6-methoxy-2-(2-methoxyphenyl)benzo[b]thiophen-3-yl)-5-hydroxy-2,6-dimeth ylpyridazin-3-(2H)-one], the “F: southern crabgrass, herbicidal effect grade” value in test [1] is 0 (Herbicidal rate of 5% or less (almost no effect)). For the same compound, the “herbicidal effect on blackgrass (J)” value in [2] (setting [17]) is 4 (Herbicidal rate of 70% or more and less than 90%). Also, the “herbicidal effect on persian speedwell (R)” value in test [3] (setting [17]) is 5 (Herbicidal rate of 90% or more (almost completely withered)). In test [4] (setting [17]), the “herbicidal effect on lambsquarters (O)” value is 4 (Herbicidal rate of 70% or more and less than 90%). For the same compound, in test [5] (setting [18]), the “Herbicidal effect on H (barnyard grass), foliage application” value was 5 (Herbicidal rate of 90% or more (almost completely withered)). Moreover, the “herbicidal effect on windgrass (L)” value in [6] is 5 (Herbicidal rate of 90% or more (almost completely withered)). For the same compound, the “Herbicidal effect on D (Chinese sprangletop), foliage application” value in test [7] (setting [18]) was 1 (Herbicidal rate of 5% or more and less than 20%). In addition, the “herbicidal effect on barnyard grass (H)” value in test [8] (setting [17]) was 5 (Herbicidal rate of 90% or more (almost completely withered)). Also, the “N: redroot pigweed, herbicidal effect grade” value in test [9] was 5 (Herbicidal rate of 90% or more (almost completely withered)). Further, in test [10], the “Herbicidal effect, B: Japanese bulrush” value is 3 (Herbicidal rate of 40% or more and less than 70%). The “K: Italian ryegrass, herbicidal effect grade” value in test [11] is 3 (Herbicidal rate of 40% or more and less than 70%). In test [12] (setting [17]), the “herbicidal effect on wild oat (I)” value is reported as 0 (Herbicidal rate of 5% or less (almost no effect)). In test [13], the “I: wild oat, herbicidal effect grade” value is reported as 0 (Herbicidal rate of 5% or less (almost no effect)). The “herbicidal effect on southern crabgrass (F)” value in test [14] (setting [17]) was 0 (Herbicidal rate of 5% or less (almost no effect)). In addition, the “Herbicidal effect, C” value in [15] is 2 (Herbicidal rate of 20% or more and less than 40%).
